Source: ChEMBL document CHEMBL1201861, “Genomics of Drug Sensitity in Cancer screening data, Wellcome Trust Sanger Institute”

Assays:
NCI-H1963 = experiment: cells; format: functional, cell-based; settings: Homo sapiens;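 note: cell growth inhibition of the human line, determined with a cell viability assay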
Description: SANGER: Inhibition of human NCI-H1963 cell growth in a cell viability assay.

RPMI-2650 = experiment: cells; format: functional, cell-based, Homo sapiens; settings: Homo sapiens, RPMI-2650
Description: SANGER: Inhibition of human RPMI-2650 cell growth in a cell viability assay.

NCI-H187 = experiment: cells; format: functional, cell-based; settings: Homo sapiens;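 note: growth inhibition of NCI-H187 cells, read out as cell viability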
Description: SANGER: Inhibition of human NCI-H187 cell growth in a cell viability assay.

COLO-668 = experiment: cells; format: functional, cell-based, Homo sapiens; settings: Homo sapiens, COLO-668
Description: SANGER: Inhibition of human COLO-668 cell growth in a cell viability assay.

LP-1 = experiment: cells; format: functional, cell-based; settings: Homo sapiens;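 note: growth inhibition of human LP-1 cells, with the read-out taken from a cell viability assay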
Description: SANGER: Inhibition of human LP-1 cell growth in a cell viability assay.

CMK = experiment: cells; format: functional, cell-based; settings: Homo sapiens;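 note: growth inhibition of CMK cells, read out as cell viability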
Description: SANGER: Inhibition of human CMK cell growth in a cell viability assay.

HCC1599 = experiment: cells; format: functional, cell-based; settings: Homo sapiens;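 note: growth inhibition of HCC1599 cells, read out in a cell viability assay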
Description: SANGER: Inhibition of human HCC1599 cell growth in a cell viability assay.

NCI-H716 = experiment: cells; format: functional, cell-based; settings: Homo sapiens;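 note: growth inhibition of human NCI-H716 cells, measured by a cell viability assay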
Description: SANGER: Inhibition of human NCI-H716 cell growth in a cell viability assay.

YT = experiment: cells; format: functional, cell-based; settings: Homo sapiens
Description: SANGER: Inhibition of human YT cell growth in a cell viability assay.

SNU-16 = experiment: cells; format: functional, cell-based; settings: Homo sapiens;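 note: growth inhibition of human SNU-16 cells, determined with a cell viability readout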
Description: SANGER: Inhibition of human NCI-SNU-16 cell growth in a cell viability assay.

HCC1187 = experiment: cells; format: functional, cell-based, Homo sapiens; settings: Homo sapiens, HCC1187;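 note: growth inhibition of HCC1187 cells, read out with a cell viability assay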
Description: SANGER: Inhibition of human HCC1187 cell growth in a cell viability assay.

ABC-1 = experiment: cells; format: functional, cell-based, Homo sapiens; settings: Homo sapiens, ABC-1;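 note: growth inhibition of human ABC-1 cells, read out by a cell viability assay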
Description: SANGER: Inhibition of human ABC-1 cell growth in a cell viability assay.

SBC-5 = experiment: cells; format: functional, cell-based, Homo sapiens; settings: Homo sapiens, SBC-5;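 note: cell viability assay read-out, IC50 is the concentration that inhibits growth of the cells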
Description: SANGER: Inhibition of human SBC-5 cell growth in a cell viability assay.

WSU-NHL = experiment: cells; format: functional, cell-based; settings: Homo sapiens;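 note: growth inhibition of human WSU-NHL cells, read out with a cell viability assay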
Description: SANGER: Inhibition of human WSU-NHL cell growth in a cell viability assay.

D-263MG = experiment: cells; format: functional, cell-based, Homo sapiens; settings: Homo sapiens, D-263MG
Description: SANGER: Inhibition of human D-263MG cell growth in a cell viability assay.

KARPAS-422 = experiment: cells; format: functional, cell-based; settings: Homo sapiens
Description: SANGER: Inhibition of human KARPAS-422 cell growth in a cell viability assay.

23132-87 = experiment: cells; format: functional, cell-based, Homo sapiens; settings: Homo sapiens
Description: SANGER: Inhibition of human 23132-87 cell growth in a cell viability assay.

GCIY = experiment: cells; format: functional, cell-based, Homo sapiens; settings: Homo sapiens, GCIY;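 note: growth inhibition of the human GCIY cell line, read out by a cell viability assay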
Description: SANGER: Inhibition of human GCIY cell growth in a cell viability assay.

NCI-H2342 = experiment: cells; format: functional, cell-based; settings: Homo sapiens;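 note: growth inhibition of the cancer cell line, determined with a cell viability assay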
Description: SANGER: Inhibition of human NCI-H2342 cell growth in a cell viability assay.

LB996-RCC = experiment: cells; format: functional, cell-based; settings: Homo sapiens
Description: SANGER: Inhibition of human LB996-RCC cell growth in a cell viability assay.

RL95-2 = experiment: cells; format: functional, cell-based; settings: Homo sapiens;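 note: RL95-2 growth inhibition determined through a cell viability readout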
Description: SANGER: Inhibition of human RL95-2 cell growth in a cell viability assay.

LC4-1 = experiment: cells; format: functional, cell-based; settings: Homo sapiens;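 note: growth inhibition of LC4-1 cells, read out with a cell viability assay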
Description: SANGER: Inhibition of human LC4-1 cell growth in a cell viability assay.

EM-2 = experiment: cells; format: functional, cell-based; settings: Homo sapiens;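 note: growth inhibition of EM-2 cells, read out with a cell viability assay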
Description: SANGER: Inhibition of human EM-2 cell growth in a cell viability assay.

SCC-4 = experiment: cells; format: functional, cell-based, Homo sapiens; settings: Homo sapiens, SCC-4;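 note: growth inhibition of human SCC-4 cells, read out as cell viability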
Description: SANGER: Inhibition of human SCC-4 cell growth in a cell viability assay.

COLO-684 = experiment: cells; format: functional, cell-based; settings: Homo sapiens
Description: SANGER: Inhibition of human COLO-684 cell growth in a cell viability assay.

BOKU = experiment: cells; format: functional, cell-based; settings: Homo sapiens;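 note: growth inhibition of the human BOKU cell line, read out by a cell viability assay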
Description: SANGER: Inhibition of human BOKU cell growth in a cell viability assay.

EB2 = experiment: cells; format: functional, cell-based; settings: Homo sapiens;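 note: growth inhibition of EB2 cells, read out with a cell viability assay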
Description: SANGER: Inhibition of human EB2 cell growth in a cell viability assay.

ECC4 = experiment: cells; format: functional, cell-based; settings: Homo sapiens;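 note: growth inhibition of ECC4 cells, read out with a cell viability assay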
Description: SANGER: Inhibition of human ECC4 cell growth in a cell viability assay.

IST-SL2 = experiment: cells; format: functional, cell-based; settings: Homo sapiens;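 note: growth inhibition of human IST-SL2 cells, read out by a cell viability assay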
Description: SANGER: Inhibition of human IST-SL2 cell growth in a cell viability assay.

NCI-H522 = experiment: cells; format: functional, cell-based, Homo sapiens; settings: Homo sapiens, NCI-H522;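 note: cell viability assay measuring growth inhibition of human NCI-H522 cells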
Description: SANGER: Inhibition of human NCI-H522 cell growth in a cell viability assay.

UACC-812 = experiment: cells; format: functional, cell-based; settings: Homo sapiens
Description: SANGER: Inhibition of human UACC-812 cell growth in a cell viability assay.

SNU-387 = experiment: cells; format: functional, cell-based, Homo sapiens; settings: Homo sapiens, SNU-387
Description: SANGER: Inhibition of human SNU-387 cell growth in a cell viability assay.

Raji = experiment: cells; format: functional, cell-based; settings: Homo sapiens;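 note: cell viability assay measuring inhibition of Raji cell growth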
Description: SANGER: Inhibition of human Raji cell growth in a cell viability assay.

RPMI-6666 = experiment: cells; format: functional, cell-based; settings: Homo sapiens
Description: SANGER: Inhibition of human RPMI-6666 cell growth in a cell viability assay.

8-MG-BA = experiment: cells; format: functional, cell-based, Homo sapiens; settings: Homo sapiens, 8-MG-BA;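 note: growth inhibition of 8-MG-BA cells, read out with a cell viability assay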
Description: SANGER: Inhibition of human 8-MG-BA cell growth in a cell viability assay.

EHEB = experiment: cells; format: functional, cell-based; settings: Homo sapiens;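 note: growth inhibition of human EHEB cells, read out with a cell viability assay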
Description: SANGER: Inhibition of human EHEB cell growth in a cell viability assay.

FaDu = experiment: cells; format: functional, cell-based, Homo sapiens; settings: Homo sapiens, FaDu;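 note: cell viability readout of growth inhibition in FaDu cells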
Description: SANGER: Inhibition of human FADU cell growth in a cell viability assay.

SIG-M5 = experiment: cells; format: functional, cell-based; settings: Homo sapiens;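 note: cell viability assay read-out, measuring how strongly growth of cultured human SIG-M5 cells is inhibited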
Description: SANGER: Inhibition of human SIG-M5 cell growth in a cell viability assay.

MDA-MB-134-VI = experiment: cells; format: functional, cell-based; settings: Homo sapiens
Description: SANGER: Inhibition of human MDA-MB-134-VI cell growth in a cell viability assay.

RL = experiment: cells; format: functional, cell-based; settings: Homo sapiens
Description: SANGER: Inhibition of human RL cell growth in a cell viability assay.

IMR-5 = experiment: cells; format: functional, cell-based; settings: Homo sapiens;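 note: growth inhibition of human IMR-5 cells, read out with a cell viability assay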
Description: SANGER: Inhibition of human IMR-5 cell growth in a cell viability assay.

NCI-H1882 = experiment: cells; format: functional, cell-based; settings: Homo sapiens;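 note: growth inhibition of the cell line, determined with a viability assay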
Description: SANGER: Inhibition of human NCI-H1882 cell growth in a cell viability assay.

EC-GI-10 = experiment: cells; format: functional, cell-based, Homo sapiens; settings: Homo sapiens, EC-GI-10
Description: SANGER: Inhibition of human EC-GI-10 cell growth in a cell viability assay.

EFO-21 = experiment: cells; format: functional, cell-based, Homo sapiens; settings: Homo sapiens, EFO-21;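 note: growth inhibition of EFO-21 cells measured with a viability assay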
Description: SANGER: Inhibition of human EFO-21 cell growth in a cell viability assay.

SU-DHL-1 = experiment: SANGER: Inhibition of human SU-DHL-1 cell growth in a cell viability assay.; format: functional, cell-based
IGR-1 = experiment: cells; format: functional, cell-based, Homo sapiens; settings: Homo sapiens, IGR-1;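 note: growth inhibition of human IGR-1 cells, read out with a cell viability assay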
Description: SANGER: Inhibition of human IGR-1 cell growth in a cell viability assay.

HSC-3 = experiment: cells; format: functional, cell-based, Homo sapiens; settings: Homo sapiens, HSC-3
Description: SANGER: Inhibition of human HSC-3 cell growth in a cell viability assay.

SW872 = experiment: cells; format: functional, cell-based, Homo sapiens; settings: Homo sapiens, SW872;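 note: growth inhibition of SW872 cells, read out by a viability assay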
Description: SANGER: Inhibition of human SW872 cell growth in a cell viability assay.

PF-382 = experiment: cells; format: functional, cell-based; settings: Homo sapiens
Description: SANGER: Inhibition of human PF-382 cell growth in a cell viability assay.

L-428 = experiment: cells; format: functional, cell-based; settings: Homo sapiens
Description: SANGER: Inhibition of human L-428 cell growth in a cell viability assay.

Cc1cnc(-c2cnc(NCCNc3ccc(C#N)cn3)nc2-c2ccc(Cl)cc2Cl)[nH]1 [LADUVIGLUSIB]
IC50 (NCI-H1963): > 2560 nM
IC50 (RPMI-2650): > 2560 nM
IC50 (NCI-H187): > 2560 nM
IC50 (COLO-668): > 2560 nM
IC50 (LP-1): > 2560 nM
IC50 (CMK): > 2560 nM
IC50 (HCC1599): > 2560 nM
IC50 (NCI-H716): > 2560 nM
IC50 (YT): > 2560 nM
IC50 (SNU-16): > 2560 nM
IC50 (HCC1187): > 2560 nM
IC50 (ABC-1): > 2560 nM
IC50 (SBC-5): > 2560 nM
IC50 (WSU-NHL): > 2560 nM
IC50 (D-263MG): > 2560 nM
IC50 (KARPAS-422): > 2560 nM
IC50 (23132-87): > 2560 nM
IC50 (GCIY): > 2560 nM
IC50 (NCI-H2342): > 2560 nM
IC50 (LB996-RCC): > 2560 nM
IC50 (RL95-2): > 2560 nM
IC50 (LC4-1): > 2560 nM
IC50 (EM-2): > 2560 nM
IC50 (SCC-4): > 2560 nM
IC50 (COLO-684): > 2560 nM
IC50 (BOKU): > 2560 nM
IC50 (EB2): > 2560 nM
IC50 (ECC4): > 2560 nM
IC50 (IST-SL2): > 2560 nM
IC50 (NCI-H522): > 2560 nM
IC50 (UACC-812): > 2560 nM
IC50 (SNU-387): > 2560 nM
IC50 (Raji): > 2560 nM
IC50 (RPMI-6666): > 2560 nM
IC50 (8-MG-BA): > 2560 nM
IC50 (EHEB): > 2560 nM
IC50 (FaDu): > 2560 nM
IC50 (SIG-M5): > 2560 nM
IC50 (MDA-MB-134-VI): > 2560 nM
IC50 (RL): > 2560 nM
IC50 (IMR-5): > 2560 nM
IC50 (NCI-H1882): > 2560 nM
IC50 (EC-GI-10): > 2560 nM
IC50 (EFO-21): > 2560 nM
IC50 (SU-DHL-1): > 2560 nM
IC50 (IGR-1): > 2560 nM
IC50 (HSC-3): > 2560 nM
IC50 (SW872): > 2560 nM
IC50 (PF-382): > 2560 nM
IC50 (L-428): > 2560 nM

CN(c1ncccc1CNc1nc(Nc2ccc3c(c2)CC(=O)N3)ncc1C(F)(F)F)S(C)(=O)=O [PF-00562271]
IC50 (NCI-H1963): > 2560 nM
IC50 (RPMI-2650): > 2560 nM
IC50 (NCI-H187): > 2560 nM
IC50 (COLO-668): > 2560 nM
IC50 (LP-1): > 2560 nM
IC50 (CMK): 2420 nM
IC50 (HCC1599): > 2560 nM
IC50 (NCI-H716): > 2560 nM
IC50 (YT): > 2560 nM
IC50 (SNU-16): > 2560 nM
IC50 (HCC1187): > 2560 nM
IC50 (ABC-1): 2250 nM
IC50 (SBC-5): > 2560 nM
IC50 (WSU-NHL): > 2560 nM
IC50 (D-263MG): > 2560 nM
IC50 (KARPAS-422): > 2560 nM
IC50 (23132-87): > 2560 nM
IC50 (GCIY): > 2560 nM
IC50 (NCI-H2342): > 2560 nM
IC50 (LB996-RCC): > 2560 nM
IC50 (RL95-2): > 2560 nM
IC50 (LC4-1): > 2560 nM
IC50 (EM-2): > 2560 nM
IC50 (SCC-4): > 2560 nM
IC50 (COLO-684): > 2560 nM
IC50 (BOKU): > 2560 nM
IC50 (EB2): > 2560 nM
IC50 (ECC4): > 2560 nM
IC50 (IST-SL2): > 2560 nM
IC50 (NCI-H522): > 2560 nM
IC50 (UACC-812): > 2560 nM
IC50 (SNU-387): 2530 nM
IC50 (Raji): > 2560 nM
IC50 (RPMI-6666): > 2560 nM
IC50 (8-MG-BA): > 2560 nM
IC50 (EHEB): > 2560 nM
IC50 (FaDu): > 2560 nM
IC50 (SIG-M5): 1480 nM
IC50 (MDA-MB-134-VI): > 2560 nM
IC50 (RL): > 2560 nM
IC50 (IMR-5): > 2560 nM
IC50 (NCI-H1882): > 2560 nM
IC50 (EC-GI-10): > 2560 nM
IC50 (EFO-21): > 2560 nM
IC50 (SU-DHL-1): > 2560 nM
IC50 (IGR-1): > 2560 nM
IC50 (HSC-3): > 2560 nM
IC50 (SW872): > 2560 nM
IC50 (PF-382): > 2560 nM
IC50 (L-428): > 2560 nM

CO[C@H]1C[C@@H]2CC[C@@H](C)[C@@](O)(O2)C(=O)C(=O)N2CCCC[C@H]2C(=O)O[C@H]([C@H](C)C[C@@H]2CC[C@@H](O)[C@H](OC)C2)CC(=O)[C@H](C)/C=C(\C)[C@@H](O)[C@@H](OC)C(=O)[C@H](C)C[C@H](C)/C=C/C=C/C=C/1C [SIROLIMUS]
IC50 (NCI-H1963): > 100 nM
IC50 (NCI-H187): > 100 nM
IC50 (COLO-668): > 100 nM
IC50 (LP-1): > 100 nM
IC50 (CMK): 84.2 nM
IC50 (HCC1599): > 100 nM
IC50 (NCI-H716): > 100 nM
IC50 (YT): > 100 nM
IC50 (SNU-16): > 100 nM
IC50 (HCC1187): > 100 nM
IC50 (WSU-NHL): > 100 nM
IC50 (D-263MG): > 100 nM
IC50 (KARPAS-422): > 100 nM
IC50 (GCIY): 53.5 nM
IC50 (LB996-RCC): 93.4 nM
IC50 (RL95-2): 0.107 nM
IC50 (LC4-1): 86.7 nM
IC50 (EM-2): 38.5 nM
IC50 (COLO-684): 39.8 nM
IC50 (BOKU): > 100 nM
IC50 (EB2): > 100 nM
IC50 (ECC4): 44.8 nM
IC50 (IST-SL2): > 100 nM
IC50 (UACC-812): > 100 nM
IC50 (Raji): 89.7 nM
IC50 (RPMI-6666): 24.4 nM
IC50 (8-MG-BA): > 100 nM
IC50 (EHEB): > 100 nM
IC50 (SIG-M5): 17.2 nM
IC50 (MDA-MB-134-VI): 44 nM
IC50 (RL): > 100 nM
IC50 (IMR-5): > 100 nM
IC50 (NCI-H1882): > 100 nM
IC50 (EC-GI-10): > 100 nM
IC50 (SU-DHL-1): > 100 nM
IC50 (SW872): 0.846 nM
IC50 (PF-382): 96.8 nM
IC50 (L-428): > 100 nM
